Test results published in patent US6465612B1, “Synthetic peptides, conjugation reagents and methods” (The Regents of the University of California, priority 1998, dated 2002).
Starred links: 1 amine or outer side, 2 acyl side, 3 side chain; linkers in the order of their positions; H or OH if unused. Non-standard residues stand in square brackets, D forms with d. Residues, ends and D or L forms follow the SMILES beside them. No end group written: not given here. ξ: configuration not given here. *: point of attachment. X1 = CC(=O)N[C@@H]1[C@@H](O)[C@@H](O)[C@@H](C=NO[C@@H]2O[C@H](CO)[C@H](O)[C@H](O)[C@H]2O)O[C@@H]1*; X2 = CC(=O)N[C@H]1[C@@H](ON=C(C)C[C@H](N[*:1])C(=O)[*:2])O[C@H](CO)[C@H](O)[C@@H]1O; αGalNAc = CC(=O)N[C@@H]1[C@@H](O)[C@@H](O)[C@@H](CO)O[C@@H]1*; Thr(3ξ) = CC(O)[C@H](N)C(=O)O

How the values were obtained:
E. coli D22 [1] = assay: Bacterial growth inhibition assays (Example IV); format: cell-based
Protocol: General methods: Galactose oxidase (EC 1.1.3.9) (450 units/mg) was purchased from Sigma. All chemical reagents were obtained from commercial suppliers and used without further purification. For flash chromatography, 230-400 mesh silica gel 60 (E. Merck No. 9385) was employed. Analytical thin layer chromatography (tlc) was conducted on Analtech Uniplate silica gel plates with detection by ceric ammonium molybdate and/or by UV light. Reversed-phase high pressure liquid chromatography (RP-HPLC) was performed on a Rainin Dynamax SD-200 system using Microsorb and Dynamax C18 reversed-phase columns (analytical: 4.6 mm ID×25 cm, 1 mL/min; semi-preparative: 10 mm ID×25 cm, 3 mL/min), and ultraviolet detection (230 nm) was performed with a Rainin Dynamax UV-1 detector. The E. coli strain D22 used in bacterial growth inhibition assays was obtained from the E. Coli Genetic Stock Center at Yale University.
Bacterial growth inhibition assays. […] Peptide concentrations were determined by measuring dry weight, and assuming 80% of that weight was peptide and the remainder water and salts. […] Growth was determined by measuring the absorbance at 595 nm on a BioRad 550 microplate reader. Percent inhibition was defined as ((Ao−Ax)/Ao)*100), where Ao was the absorbance of a control well lacking peptide and Ax was the absorbance of a well with peptide.

E. coli D22 [2] = assay: growth inhibition assay (Example II); format: cell-based; settings: for IC50: E. coli D22 in LB media with streptomycin, 24 h at rt, absorbance at 415 nm, read-out: IC50 in blocking bacterial growth
Protocol: 10. The growth inhibition assay was performed essentially as described by Bulet et al.^3 Sterile 96-well plates were used, with a final volume of 100 μL per well. This volume consisted of 90 μL of mid-logarithmnic phase culture of E. coli D22 in LB media containing streptomycin (50 μg/mL), added to 10 μL of serially diluted peptide (native drosocin (1), unglycosylated drosocin or neoglycopeptide 2) in water. Final peptide concentrations ranged from 10^−8 to 10^−5 M. Plates were incubated for 24 h at rt. Bacterial growth was determined by measuring the absorbance at 415 nm on a BioRad 550 microplate reader. Measurements were taken at t=0 h and t=24 h, and the change in absorbance (optical density) was recorded.

bacterial growth = settings: cited from earlier work; for enhancement of bacteriostatic potency by the O-linked glycan (GalNAc residue) at Thr11: glycosylated vs unglycosylated peptide

| Molecule | IC50 (E. coli D22 [2]) | enhancement of bacteriostatic potency by the O-linked glycan (GalNAc residue) at Thr11 (bacterial growth) | other results |
| --- | --- | --- | --- |
| CC[C@H](C)[C@H](NC(=O)[C@@H]1CCCN1C(=O)[C@H](CCCNC(=N)N)NC(=O)[C@@H]1CCCN1C(=O)[C@H](Cc1c[nH]cn1)NC(=O)[C@H](CO)NC(=O)[C@@H](NC(=O)[C@@H]1CCCN1C(=O)[C@H](CCCNC(=N)N)NC(=O)[C@@H]1CCCN1C(=O)[C@H](CO)NC(=O)[C@H](Cc1ccc(O)cc1)NC(=O)[C@@H]1CCCN1C(=O)[C@H](CCCNC(=N)N)NC(=O)[C@@H]1CCCN1C(=O)[C@H](CCCCN)NC(=O)CN)[C@@H](C)O[C@H]1O[C@H](C=NO[C@@H]2O[C@H](CO)[C@H](O)[C@H](O)[C@H]2O)[C@H](O)[C@H](O)[C@H]1NC(C)=O)C(=O)N[C@@H](CCCNC(=N)N)C(=O)N[C@H](C(=O)O)C(C)C [Glycopeptide 5] (H-GKPRPYSPRPT(X1)SHPRPIRV-OH) |  |  | potency in blocking bacterial growth relative to unglycosylated drosocin (E. coli D22 [1]; E. coli D22, 6 h at 25° C.): 3 to 4 fold |
| H-GKPRPYSPRPTSHPRPIRV-OH [unglycosylated drosocin] | 0.63 ± 0.05 µM |  | IC50 (E. coli D22 [1]; E. coli D22 in LB media with streptomycin, 6 h at 25° C., absorbance at 595 nm, read-out: IC50 in blocking bacterial growth): 0.4 ± 0.05 µM |
| GKPRPYSPRPTSHPRPIRV [drosocin] |  | five-fold | enhancement of potency in blocking bacterial growth by a single O-linked disaccharide (Gal-GalNAc) at Thr11 (bacterial growth; depending on the target bacterial strain): 2-8 fold |
| CC[C@H](C)[C@H](NC(=O)[C@@H]1CCCN1C(=O)[C@H](CCCNC(=N)N)NC(=O)[C@@H]1CCCN1C(=O)[C@H](Cc1c[nH]cn1)NC(=O)[C@H](CO)NC(=O)[C@@H](NC(=O)[C@@H]1CCCN1C(=O)[C@H](CCCNC(=N)N)NC(=O)[C@@H]1CCCN1C(=O)[C@H](CO)NC(=O)[C@H](Cc1ccc(O)cc1)NC(=O)[C@@H]1CCCN1C(=O)[C@H](CCCNC(=N)N)NC(=O)[C@@H]1CCCN1C(=O)[C@H](CCCCN)NC(=O)CN)C(C)O[C@H]1O[C@H](CO)[C@H](O)[C@H](O)[C@H]1NC(C)=O)C(=O)N[C@@H](CCCNC(=N)N)C(=O)N[C@H](C(=O)O)C(C)C (stereo partly drawn) [native drosocin (1), H2N-Gly-Lys-Pro-Arg-Pro-Tyr-Ser-Pro-Arg-Pro-Thr(α-D-GalNAc)-Ser-His-Pro-Arg-Pro-Ile-Arg-Val-OH] (H-GKPRPYSPRP[Thr(3ξ)](αGalNAc)SHPRPIRV-OH) | 0.1 ± 0.02 µM | approximately five-fold |  |
| CC[C@H](C)[C@H](NC(=O)[C@@H]1CCCN1C(=O)[C@H](CCCNC(=N)N)NC(=O)[C@@H]1CCCN1C(=O)[C@H](Cc1c[nH]cn1)NC(=O)[C@H](CO)NC(=O)[C@H](CC(C)=NO[C@H]1O[C@H](CO)[C@H](O)[C@H](O)[C@H]1NC(C)=O)NC(=O)[C@@H]1CCCN1C(=O)[C@H](CCCNC(=N)N)NC(=O)[C@@H]1CCCN1C(=O)[C@H](CO)NC(=O)[C@H](Cc1ccc(O)cc1)NC(=O)[C@@H]1CCCN1C(=O)[C@H](CCCNC(=N)N)NC(=O)[C@@H]1CCCN1C(=O)[C@H](CCCCN)NC(=O)CN)C(=O)N[C@@H](CCCNC(=N)N)C(=O)N[C@H](C(=O)O)C(C)C [neoglycopeptide 2] (H-GKPRPYSPRP[X2]SHPRPIRV-OH) | 0.16 ± 0.04 µM |  | potency in blocking bacterial growth relative to unglycosylated drosocin (E. coli D22 [2]; E. coli D22, 24 h at rt): four-fold more potent |
